Experimental data reported in patent EP0430194A2, “Aryl-alkyl-azoles substituted with many times unsaturated groups, process for their preparation and their use” (HOECHST AKTIENGESELLSCHAFT, priority 1989, dated 1991).

Key:
[1] = system: freigesetzten Exoenzyme von Candida albicans; experiment: In vitro enzyme test: inhibition of released exoenzymes of Candida albicans blastoconidia on egg-yolk agar plate; format: cell-based; settings: Stamm 200/175
Source text: Als Beispiel für die Hemmung der pathogenen Phase dimorpher Hefezellen werden Ergebnisse eines in-vitro-Enzymtests angeführt, in welchen die prozentuale Hemmung freigesetzter Exoenzyme, insbesondere freigesetzter Lysophospholipase (Phospholipase B), als Maß für die Wirksamkeit bestimmt wird.
Zur Feststellung der Enzymhemmung wurde eine Suspension von Candida albicans Blastokonidien (Stamm 200/175), wobei die Keimdichte photometrisch auf eine Extinktion von 0,5 (500 nm) eingestellt war, mit Präparatelösung bzw. zur Kontrolle mit Lösungsmittellösung vermischt und zwar • a) 100 µl Präparatelösung (Suspension) + 900 µl Keimsuspension • b) 100 µl Lösungsmittel + 900 µl Keimsuspension
Jeweils 5 µl der 30 min bei 21°C inkubierten Blastokonidiensuspension wurden auf eine Agarplatte (Sabourand Agar mit Zusatz von 8 % Eigelb, 1 M NaCl, 5 mM CaCl₂) aufgetropft.
Die so beimpfte Platte wurde 3 Tage bei 37°C bebrütet.
Die Auswertung erfolgte derart, daß • 1. der Durchmesser (mm) der Candida albicans-Kolonie (behandelt und unbehandelt) sowie • 2. der Gesamtdurchmesser von Kolonie und Trübungshof, welcher durch Exoenzyme verursacht wurde (behandelt und unbehandelt) bestimmt wurde.
Aus der Bestimmung des Quotienten von Präparate- und Kontrollgruppe ergab sich ein Wert, der als Maß für die Enzymaktivität anzusehen war.

[2] = system: Trichophyton mentagrophytes; experiment: Local in vivo efficacy, dermal treatment of guinea pigs infected with Trichophyton mentagrophytes; settings: Dermal 5 x 0,1 %; for Mykosen (Durchmesser in mm) Mittelwert (Standardabweich.): Meerschweinchen (Pirbright white), from day 3 after infection, n = 6; for Reduktion in %: Meerschweinchen, relative to Bifonazol = 100,0
Source text: Als Beispiel für die hohe lokale in vivo Wirksamkeit der erfindungsgemäßen Verbindungen werden Behandlungsergebnisse an Experimenten mit Trichophyton mentagrophytes infizierten Labortieren angeführt.
Zur Feststellung der lokalen Wirksamkeit wurde jeweils ein 450 - 500 g schweres Meerschweinchen (Stamm Pirbright white) mit 1,5 x 10⁴ Konidien/Tier in die Epidermis verteilt auf 6 Infektionspunkte, infiziert.
Die Behandlung der Tiere erfolgte dermal ab dem 3. Tag nach der Infektion an 5 aufeinander folgenden Tagen durch Aufbringen einer 0,1 %igen Präparatlösung auf 6 Infektionsstellen der Rückenseite.
Neben den mit den erfindungsgemäßen Substanzen behandelten Tieren wurde ein Tier mit der Referenzsubstanz Bifonazol behandelt, ein Tier blieb nach der Infektion unbehandelt.

[3] = system: Phospholipase aus Leberzellen; settings: literature, Biochem. Pharmacol. 34, 521-24, 1985; cited from earlier work
[4] = Präparat-Konzentration 10 µg/ml
[5] = Präparat-Konzentration 50 µg/ml
[6] = Präparat-Konzentration 100 µg/ml

With `CC(C)=CCC/C(C)=C\COC(Cn1ccnc1)c1ccc(Cl)cc1Cl` (racemic) [Beispiel 2, (R,S)-1-(2,4-Dichlorphenyl)-1-(cis-3,7-dimethyl-2,6-octadien-1-oxy)-2-(imidazol-1-yl)-ethan] the “Prozentuale Hemmung der freigesetzten Exoenzyme von Candida albicans in vitro” value [1, 4] was 41,2%, the “Prozentuale Hemmung der freigesetzten Exoenzyme von Candida albicans in vitro” value [1, 5] was 100% and the “Prozentuale Hemmung der freigesetzten Exoenzyme von Candida albicans in vitro” value [1, 6] was 100%. For the same compound, the “Mykosen (Durchmesser in mm) Mittelwert (Standardabweich.)” value (“Mykosen (Durchmesser in mm) Mittelwert” below) [2] was 3,3 (0,5) mm and the Reduktion in % [2] was 139,3%.

In the case of `CC(C)=CCC/C(C)=C\COC(Cn1cncn1)c1ccc(Cl)cc1Cl` (racemic) [Beispiel 5], the “Mykosen (Durchmesser in mm) Mittelwert” value [2] is reported as 2,6 (1,5) mm and the Reduktion in % [2] is reported as 176,9%.

For `CC(C)=CCC/C(C)=C\COC(CCn1ccnc1)c1cccs1` (racemic) [Beispiel 40], the “Mykosen (Durchmesser in mm) Mittelwert” value [2] was 2,8 (1,7) mm and the Reduktion in % [2] was 164,2%.

With `CC(C)=CCC/C(C)=C\COC(Cn1cncn1)c1ccc(Cl)s1` (racemic) [Beispiel 42] the “Prozentuale Hemmung der freigesetzten Exoenzyme von Candida albicans in vitro” value [1, 4] was 50,0%, the “Prozentuale Hemmung der freigesetzten Exoenzyme von Candida albicans in vitro” value [1, 5] was 100% and the “Prozentuale Hemmung der freigesetzten Exoenzyme von Candida albicans in vitro” value [1, 6] was 100%.

With `CC(C)=CCC/C(C)=C\COC(Cn1ccnc1)c1ccccn1` (racemic) [Beispiel 46] the “Mykosen (Durchmesser in mm) Mittelwert” value [2] was 2,8 (1,6) mm and the Reduktion in % [2] was 164,2%.

In the case of `CC(C)=CCC/C(C)=C\COC(Cn1ccnc1)c1ccco1` (racemic) [Beispiel 47], the “Mykosen (Durchmesser in mm) Mittelwert” value [2] is reported as 3,6 (0,8) mm and the Reduktion in % [2] is reported as 127,7%.

With `c1ccc(-c2ccc(C(c3ccccc3)n3ccnc3)cc2)cc1` (stereo not shown) [Bifonazol, reference compound] the “Mykosen (Durchmesser in mm) Mittelwert” value [2] was 4,6 (1,5) mm and the Reduktion in % [2] was 100,0%.

In the case of `CC(C)NCC(O)COc1cccc2ccccc12` (stereo not shown) [Propranolol, reference compound], the “Hemmwirkung gegenüber Phospholipase aus Leberzellen” value [3] is given as “Hemmwirkung zeigte”, the “Prozentuale Hemmung der freigesetzten Exoenzyme von Candida albicans in vitro” value [1, 4] is given as 0% and the “Prozentuale Hemmung der freigesetzten Exoenzyme von Candida albicans in vitro” value [1, 5] is given as 10%. The “Prozentuale Hemmung der freigesetzten Exoenzyme von Candida albicans in vitro” value [1, 6] was 30%.
